{"source": "ChEMBL document CHEMBL6071156", "about": "(Eur J Med Chem, 2024)", "key": {"[1]": {"experiment": "Half life in C57BL/6 mouse plasma at 10 mg/kg, po measured […] post dosing by LC-MS/MS", "type": "ADME, organism-based", "details": "in vivo"}, "[2]": {"experiment": "Oral bioavailability in C57BL/6 mouse plasma at 10 mg/kg, measured upto 24 hrs by LC-MS/MS", "type": "ADME, organism-based", "details": "in vivo"}, "[3]": {"tested_on": "Chikungunya virus", "experiment": "Antiviral activity against CHIKV infected in C57BL/6 mouse assessed as footpad swelling at 100 mg/kg/day, ip measured after 6 days post infection (reference value: 40.9+/-12.4)", "type": "functional", "details": "time 6 day"}, "[4]": {"tested_on": "Chikungunya virus", "experiment": "Antiviral activity against CHIKV infected in C57BL/6 mouse assessed as virus titers at 100 mg/kg/day, ip measured after 6 days post infection (reference value: 5.3+/0.3)", "type": "functional", "details": "time 6 day"}, "[5]": {"target": "Polyprotein P1234 (Chikungunya virus (strain S27-African prototype) (CHIKV)) (UniProt Q8JUX6)", "sequence (Q8JUX6 whole entry)": "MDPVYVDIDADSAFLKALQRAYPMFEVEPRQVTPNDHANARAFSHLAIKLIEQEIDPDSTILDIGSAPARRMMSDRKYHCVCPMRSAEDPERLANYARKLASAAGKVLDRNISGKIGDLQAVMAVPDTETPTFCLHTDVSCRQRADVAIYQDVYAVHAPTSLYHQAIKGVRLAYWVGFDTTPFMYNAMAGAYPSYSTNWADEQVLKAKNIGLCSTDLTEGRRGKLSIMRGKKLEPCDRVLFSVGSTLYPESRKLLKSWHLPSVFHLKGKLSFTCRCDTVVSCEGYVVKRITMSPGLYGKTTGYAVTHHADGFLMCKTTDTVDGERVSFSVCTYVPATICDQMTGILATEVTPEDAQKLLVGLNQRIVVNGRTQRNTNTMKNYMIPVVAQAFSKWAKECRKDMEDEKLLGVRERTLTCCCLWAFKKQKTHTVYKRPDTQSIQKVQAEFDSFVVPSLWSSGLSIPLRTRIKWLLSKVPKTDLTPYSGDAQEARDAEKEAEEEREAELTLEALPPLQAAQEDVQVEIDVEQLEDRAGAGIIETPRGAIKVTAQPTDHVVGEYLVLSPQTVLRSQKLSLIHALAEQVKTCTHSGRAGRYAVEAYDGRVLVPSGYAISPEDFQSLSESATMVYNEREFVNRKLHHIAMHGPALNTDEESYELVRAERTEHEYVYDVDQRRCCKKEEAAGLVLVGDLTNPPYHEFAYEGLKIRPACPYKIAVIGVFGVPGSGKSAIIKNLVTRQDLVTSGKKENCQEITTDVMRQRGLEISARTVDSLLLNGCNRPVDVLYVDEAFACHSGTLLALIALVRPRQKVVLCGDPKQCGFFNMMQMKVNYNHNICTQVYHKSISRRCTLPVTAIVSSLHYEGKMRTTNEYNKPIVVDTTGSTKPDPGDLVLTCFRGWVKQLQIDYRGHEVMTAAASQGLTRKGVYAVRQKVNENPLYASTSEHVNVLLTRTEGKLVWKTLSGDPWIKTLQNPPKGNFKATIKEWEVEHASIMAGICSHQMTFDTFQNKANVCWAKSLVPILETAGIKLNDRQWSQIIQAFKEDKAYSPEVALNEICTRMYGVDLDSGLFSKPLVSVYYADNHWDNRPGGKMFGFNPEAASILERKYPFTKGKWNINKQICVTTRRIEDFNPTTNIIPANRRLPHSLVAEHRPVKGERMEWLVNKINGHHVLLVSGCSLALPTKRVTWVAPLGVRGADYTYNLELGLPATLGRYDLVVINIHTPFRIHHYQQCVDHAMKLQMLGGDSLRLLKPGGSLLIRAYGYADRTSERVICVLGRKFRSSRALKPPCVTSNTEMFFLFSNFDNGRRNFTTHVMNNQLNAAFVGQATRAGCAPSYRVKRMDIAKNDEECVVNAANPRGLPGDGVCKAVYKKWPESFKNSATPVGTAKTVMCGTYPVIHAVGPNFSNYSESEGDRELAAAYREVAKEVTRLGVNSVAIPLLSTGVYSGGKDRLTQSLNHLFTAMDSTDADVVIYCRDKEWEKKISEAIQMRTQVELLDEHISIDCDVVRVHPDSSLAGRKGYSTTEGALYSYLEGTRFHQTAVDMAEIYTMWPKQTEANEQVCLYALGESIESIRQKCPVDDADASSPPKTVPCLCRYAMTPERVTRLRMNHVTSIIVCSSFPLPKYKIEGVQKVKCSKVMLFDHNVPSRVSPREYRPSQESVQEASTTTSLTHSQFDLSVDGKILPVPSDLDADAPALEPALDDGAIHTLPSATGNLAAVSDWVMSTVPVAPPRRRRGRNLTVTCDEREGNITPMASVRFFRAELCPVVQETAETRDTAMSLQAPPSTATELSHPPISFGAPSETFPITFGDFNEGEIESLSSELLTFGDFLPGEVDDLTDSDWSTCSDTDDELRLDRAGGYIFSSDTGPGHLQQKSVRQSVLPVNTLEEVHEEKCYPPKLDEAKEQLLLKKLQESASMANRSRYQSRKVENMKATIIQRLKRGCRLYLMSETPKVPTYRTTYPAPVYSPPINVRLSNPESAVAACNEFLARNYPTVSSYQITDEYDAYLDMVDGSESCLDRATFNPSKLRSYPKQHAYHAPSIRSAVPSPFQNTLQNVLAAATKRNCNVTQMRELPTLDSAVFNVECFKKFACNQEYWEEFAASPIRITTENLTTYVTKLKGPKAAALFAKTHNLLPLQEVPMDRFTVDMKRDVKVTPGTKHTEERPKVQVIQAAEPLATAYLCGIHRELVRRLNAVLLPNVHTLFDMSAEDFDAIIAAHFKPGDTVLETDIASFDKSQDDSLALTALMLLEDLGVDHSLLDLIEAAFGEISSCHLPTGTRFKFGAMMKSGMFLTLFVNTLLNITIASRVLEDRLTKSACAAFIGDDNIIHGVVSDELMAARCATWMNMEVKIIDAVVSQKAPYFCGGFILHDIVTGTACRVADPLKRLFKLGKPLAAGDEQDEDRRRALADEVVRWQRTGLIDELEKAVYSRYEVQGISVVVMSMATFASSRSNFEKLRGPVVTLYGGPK", "details": "dose 0.27-600 µM, time 2000-8000 sec"}, "[6]": {"target": "Polyprotein P1234 (Chikungunya virus (strain S27-African prototype) (CHIKV)) (UniProt Q8JUX6)", "details": "dose 0.27-600 µM"}, "[7]": {"target": "T1, CYP1A (Homo sapiens, UniProt P04798+P05177)", "T1 sequence (P04798 whole entry)": "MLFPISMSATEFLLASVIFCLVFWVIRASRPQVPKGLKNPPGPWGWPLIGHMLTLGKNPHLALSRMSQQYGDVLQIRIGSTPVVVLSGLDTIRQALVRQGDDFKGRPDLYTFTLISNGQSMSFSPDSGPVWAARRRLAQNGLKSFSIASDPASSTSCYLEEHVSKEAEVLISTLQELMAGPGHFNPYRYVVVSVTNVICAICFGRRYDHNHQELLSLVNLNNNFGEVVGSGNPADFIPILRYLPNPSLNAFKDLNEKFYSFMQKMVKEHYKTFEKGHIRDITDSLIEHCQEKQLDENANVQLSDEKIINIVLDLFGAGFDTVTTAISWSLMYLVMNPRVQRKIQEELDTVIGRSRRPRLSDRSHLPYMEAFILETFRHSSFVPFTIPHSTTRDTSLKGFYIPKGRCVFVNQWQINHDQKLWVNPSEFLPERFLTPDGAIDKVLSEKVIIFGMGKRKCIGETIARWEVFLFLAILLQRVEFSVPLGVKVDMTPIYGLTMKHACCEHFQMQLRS", "T1 sequence (P05177 whole entry)": "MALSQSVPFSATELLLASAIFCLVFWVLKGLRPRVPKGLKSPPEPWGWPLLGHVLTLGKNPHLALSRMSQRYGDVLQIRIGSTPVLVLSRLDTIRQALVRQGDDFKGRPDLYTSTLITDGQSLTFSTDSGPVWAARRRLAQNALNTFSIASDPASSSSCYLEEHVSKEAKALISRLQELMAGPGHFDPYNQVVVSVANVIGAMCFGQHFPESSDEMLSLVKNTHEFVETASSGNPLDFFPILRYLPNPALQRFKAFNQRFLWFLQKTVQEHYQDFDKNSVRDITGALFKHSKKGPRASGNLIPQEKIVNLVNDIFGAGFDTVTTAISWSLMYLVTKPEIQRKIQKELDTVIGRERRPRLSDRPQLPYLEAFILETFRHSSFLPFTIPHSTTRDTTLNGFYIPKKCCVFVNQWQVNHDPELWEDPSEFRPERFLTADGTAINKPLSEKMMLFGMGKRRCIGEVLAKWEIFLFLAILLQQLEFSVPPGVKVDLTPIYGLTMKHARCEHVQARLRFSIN", "experiment": "Inhibition of CYP1A (unknown origin)", "type": "ADME, protein assay"}, "[8]": {"target": "T2, Cytochrome P450 2C8 (Homo sapiens, UniProt P10632)", "T2 sequence (P10632 whole entry)": "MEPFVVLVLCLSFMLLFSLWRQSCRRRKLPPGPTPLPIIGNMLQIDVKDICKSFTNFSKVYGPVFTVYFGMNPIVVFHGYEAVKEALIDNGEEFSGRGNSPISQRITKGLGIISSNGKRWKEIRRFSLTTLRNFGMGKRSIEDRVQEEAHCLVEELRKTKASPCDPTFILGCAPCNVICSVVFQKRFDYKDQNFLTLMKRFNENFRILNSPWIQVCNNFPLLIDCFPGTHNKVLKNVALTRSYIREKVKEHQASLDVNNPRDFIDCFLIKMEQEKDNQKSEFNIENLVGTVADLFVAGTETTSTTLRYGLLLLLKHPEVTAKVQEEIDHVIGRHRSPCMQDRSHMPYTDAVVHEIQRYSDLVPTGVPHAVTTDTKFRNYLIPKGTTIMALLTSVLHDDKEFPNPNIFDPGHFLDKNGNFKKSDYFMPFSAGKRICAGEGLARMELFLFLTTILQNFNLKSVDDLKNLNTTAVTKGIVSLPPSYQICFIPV", "experiment": "Inhibition of CYP2C8 (unknown origin)", "type": "ADME"}, "[9]": {"target": "Cytochrome P450 3A (Homo sapiens, UniProt P08684+P20815+Q9HB55+P24462)", "experiment": "Inhibition of CYP3A in human liver microsomes using testosterone as substrate", "type": "ADME, Microsome"}, "[10]": {"target": "T3, A-type voltage-gated potassium channel KCND3 (Homo sapiens, UniProt Q9UK17)", "T3 sequence (Q9UK17 whole entry)": "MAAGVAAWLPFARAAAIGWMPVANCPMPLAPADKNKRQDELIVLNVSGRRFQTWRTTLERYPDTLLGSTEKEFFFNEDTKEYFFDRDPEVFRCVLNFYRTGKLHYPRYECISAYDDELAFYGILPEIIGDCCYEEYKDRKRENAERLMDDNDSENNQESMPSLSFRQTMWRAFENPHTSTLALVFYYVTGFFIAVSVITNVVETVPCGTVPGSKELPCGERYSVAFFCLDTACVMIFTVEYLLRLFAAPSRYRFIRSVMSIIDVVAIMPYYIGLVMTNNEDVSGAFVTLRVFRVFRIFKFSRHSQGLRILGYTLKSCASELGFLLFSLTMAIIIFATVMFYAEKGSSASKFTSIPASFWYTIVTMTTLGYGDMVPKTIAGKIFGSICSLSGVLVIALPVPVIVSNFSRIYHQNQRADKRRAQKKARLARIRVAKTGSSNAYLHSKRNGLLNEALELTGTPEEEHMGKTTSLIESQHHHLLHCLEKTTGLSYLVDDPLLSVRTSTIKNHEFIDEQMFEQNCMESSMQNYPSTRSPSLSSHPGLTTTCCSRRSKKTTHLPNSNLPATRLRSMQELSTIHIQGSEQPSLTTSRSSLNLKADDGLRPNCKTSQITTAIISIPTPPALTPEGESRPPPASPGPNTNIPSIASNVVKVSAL", "experiment": "Antagonist activity at potassium channels hKv4.3/hKChiP2 expressed in HEK293 cells by Electrophysiology", "type": "toxicity, cell-based"}}, "note": "The source made the active and inactive calls. The calls are words filed in the database; no cut-off is given here.", "data": [{"smiles": "CC1CCNc2c(C(=O)NC/C=C/S(C)(=O)=O)cccc21", "note": "(stereo not given)", "values": [{"measurement": "t1/2", "setting": "[1]", "value": 49.8, "unit": "min"}, {"measurement": "F", "setting": "[2]", "value": 95.6, "unit": "%"}, {"measurement": "Activity", "setting": "[3]", "value": 23.7, "unit": "%"}, {"measurement": "Activity", "setting": "[4]", "value": 5.8}, {"measurement": "TDI", "setting": "[5]", "value": "Active"}, {"measurement": "inhibition", "setting": "[6]", "value": "Dose-Dependent Effect"}, {"measurement": "IC50", "setting": "[7]", "value": "> 100", "unit": "µM"}, {"measurement": "IC50", "setting": "[8]", "value": "> 100", "unit": "µM"}, {"measurement": "IC50", "setting": "[9]", "value": "< 0.03", "unit": "µM"}, {"measurement": "IC50", "setting": "[10]", "value": "> 100", "unit": "µM"}]}]}
